Experimental data published in ChEMBL document CHEMBL1201862, “PubChem BioAssay data set” (2004).
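Values below derive from 48-hour exposures of cells grown in 96-well plates, with endpoints linearly interpolated between the two concentrations bracketing the appropriate inhibition level. GI50 marks 50% less growth.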 The source made the active and inactive calls. No stated cut-off is given here; in the data, active = GI50 up to about 1.1 µM and inactive = higher.

Tests used:
Assay in all cases: NCI-60 cell line screen, 48 h
SW-620 = test system: SW-620
XF498 = test system: XF498
HCC 2998 = test system: HCC 2998
IGROV-1 = test system: IGROV-1
DLD-1 = test system: DLD-1
M14 = test system: M14
KM-20L2 = test system: KM-20L2
HOP-92 = test system: HOP-92
CAKI-1 = test system: CAKI-1
DMS-114 = test system: DMS-114
OVCAR-4 = test system: OVCAR-4
HCT-116 = test system: HCT-116
SR = test system: SR
UO-31 = test system: UO-31
A549 = test system: A549
RXF 631 = test system: RXF 631
LOX IMVI = test system: LOX IMVI
SNB-75 = test system: SNB-75
MOLT-4 = test system: MOLT-4
HCT-15 = test system: HCT-15
COLO 205 = test system: COLO 205
NCI-H522 = test system: NCI-H522
RPMI-8226 = test system: RPMI-8226
SK-MEL-28 = test system: SK-MEL-28
SF-268 = test system: SF-268
UACC-257 = test system: UACC-257
SK-MEL-2 = test system: SK-MEL-2
NCI-H460 = test system: NCI-H460
K562 = test system: K562
HL-60 = test system: HL-60
SK-OV-3 = test system: SK-OV-3
Malme-3M = test system: Malme-3M
ACHN = test system: ACHN
UACC-62 = test system: UACC-62
786-0 = test system: 786-0
OVCAR-5 = test system: OVCAR-5
KM12 = test system: KM12
SF-295 = test system: SF-295
M19-MEL = test system: M19-MEL
SF-539 = test system: SF-539
LXFL 529 = test system: LXFL 529
OVCAR-8 = test system: OVCAR-8
HOP-62 = test system: HOP-62
HT-29 = test system: HT-29
CCRF-CEM = test system: CCRF-CEM
HOP-18 = test system: HOP-18
EKVX = test system: EKVX
OVCAR-3 = test system: OVCAR-3
SNB-19 = test system: SNB-19
TK-10 = test system: TK-10

O=c1oc2c3ccc4ccccc4c3n(CCCN3CCCCC3)c2c2ccccc12
GI50 (SW-620): 5.62 µM (inactive) | GI50 (XF498): 64.6 µM (inactive) | GI50 (HCC 2998): > 100 µM (inactive) | GI50 (IGROV-1): > 100 µM (inactive) | GI50 (DLD-1): 25.2 µM (inactive) | GI50 (M14): 11.5 µM (inactive) | GI50 (KM-20L2): 19.5 µM (inactive) | GI50 (HOP-92): > 100 µM (inactive) | GI50 (CAKI-1): > 100 µM (inactive) | GI50 (DMS-114): > 100 µM (inactive) | GI50 (OVCAR-4): 45.9 µM (inactive) | GI50 (HCT-116): 16.1 µM (inactive) | GI50 (SR): 3.59 µM (inactive) | GI50 (UO-31): > 100 µM (inactive) | GI50 (A549): 34 µM (inactive) | GI50 (RXF 631): 46.7 µM (inactive) | GI50 (LOX IMVI): > 100 µM (inactive) | GI50 (SNB-75): 52.2 µM (inactive) | GI50 (MOLT-4): 3.24 µM (inactive) | GI50 (HCT-15): 29.1 µM | GI50 (COLO 205): 10.9 µM (inactive) | GI50 (NCI-H522): > 100 µM (inactive) | GI50 (RPMI-8226): 32.1 µM (inactive) | GI50 (SK-MEL-28): 19.1 µM (inactive) | GI50 (SF-268): 59.2 µM (inactive) | GI50 (UACC-257): 33.6 µM (inactive) | GI50 (SK-MEL-2): > 100 µM (inactive) | GI50 (NCI-H460): 14.7 µM (inactive) | GI50 (K562): 10.2 µM (inactive) | GI50 (HL-60): 17.2 µM (inactive) | GI50 (SK-OV-3): > 100 µM (inactive) | GI50 (Malme-3M): 20.7 µM (inactive) | GI50 (ACHN): > 100 µM (inactive) | GI50 (UACC-62): > 100 µM (inactive) | GI50 (786-0): 18.7 µM (inactive) | GI50 (OVCAR-5): > 100 µM (inactive) | GI50 (KM12): 26.5 µM (inactive) | GI50 (SF-295): 46.9 µM (inactive) | GI50 (M19-MEL): 63.2 µM (inactive) | GI50 (SF-539): 19.4 µM (inactive) | GI50 (LXFL 529): 62.7 µM (inactive) | GI50 (OVCAR-8): 32.7 µM (inactive) | GI50 (HOP-62): > 100 µM (inactive) | GI50 (HT-29): 8.39 µM (inactive) | GI50 (CCRF-CEM): 17.3 µM (inactive) | GI50 (HOP-18): > 100 µM (inactive) | GI50 (EKVX): > 100 µM (inactive) | GI50 (OVCAR-3): > 100 µM (inactive) | GI50 (SNB-19): > 100 µM (inactive) | GI50 (TK-10): 42.1 µM (inactive)
